Experimental data as given in patent publication US20240041838A1, “METHODS AND COMPOSITIONS FOR INHIBITION OF NEUTROPHIL RECRUITMENT IN MYCOCARDIAL ISCHEMIA-REPERFUSION INJURY” (University of Connecticut, priority 2022, published 2024).
Values joined by “and” are separate entries in the source; they are usually repeats but may differ in a detail not shown here. Equal values may be shown once.

Key:
[1] = system: Rac-1 activation in human neutrophils; experiment: Rac-1-GTP pull-down and western blot in human neutrophils; type: cell-based; conditions: 10 μM, RT 1 hour, IL-8 1 μg·mL^−1, increase about 60% without drug
[2] = system: LPS-induced systemic inflammation / acute lung injury; conditions: reported, cited from earlier work
neutrophils = conditions: reported; cited from earlier work
[3] = pharmacokinetics after i.p. injection in mice; type: in vivo, mouse; conditions: plasma
Protocol: Pharmacokinetics was performed through a service provided by the Shanghai Institute of Materia Medica. […] Blood samples (20 μL) were collected at 3 min, 15 min, 45 min, 2 h, 4 h, 8 h, and 24 h through femoral vein phlebotomy. 200 μL of methanol:acetonitrile (1:1, v/v) with internal standard was added to […] of plasma and vortexed thoroughly. After centrifuging at 11000 rpm, RT for 5 min, 20 μL of the supernatant was collected and mixed with 20 μL of water for analysis. Samples were analyzed by a TQ-S triple quadrupole mass spectrometer (Waters, Milford, MA, USA). An Acquity Uplc Beh C18 Column (1.7 μm, 2.0 mm×50 mm, Waters) was used for the analysis. Gradient elution was applied consisting of 5 mM […] containing 0.1% formic acid and methanol:acetonitrile (1/9, v/v) containing 0.1% formic acid.

human neutrophils [4] = conditions: 30 mins GM-CSF and fMLP; pretreatment; cited from earlier work
human neutrophils [5] = experiment: microfluidic perfusion assay: neutrophil rolling and arrest on P-selectin/ICAM-1 with IL-8; type: cell-based; conditions: 10 μM
Protocol: The assembly of the microfluidic devices used in this study and the coating of coverslips with recombinant human P-selectin-Fc and ICAM-1-Fc with or without IL-8 have been described previously. Briefly, coverslips were coated with P-selectin-Fc (2 μg·ml^−1) and ICAM-1-Fc (10 μg·ml^−1) without or with IL-8 (10 μg·ml^−1) for two hours and then blocked for one hour with casein (1%) at RT. After coating, coverslips were sealed with polydimethylsiloxane chips by magnetic clamps to create flow chamber channels ˜29 μm high and ˜300 μm across. By modulating the pressure between the inlet well and the outlet reservoir, 6 dyn·cm^−2 wall shear stress was applied in all experiments.
To study the rolling and arrest of neutrophils, isolated human neutrophils (5×10^6 cells·ml^−1) were perfused in the microfluidic device over a substrate of recombinant human P-selectin-Fc and recombinant human ICAM-1-Fc with or without IL-8 under a shear stress of 6 dyn·cm^−2. […] Time-lapse images (one frame per second) were taken by an IX71 inverted research microscope (Olympus America) with a 40× NA 0.9 air objective during the perfusion to quantify rolling velocity. The quantification was done using the “Manual tracking” plugin in FIJI-ImageJ v2.0. Cell tracks (FIG. 1A) and rolling velocity were obtained (FIGS. 1B, 2C). After perfusion with neutrophils for 10 minutes, the microfluidic device was washed with RPMI-1640 without phenol red plus 2% HSA for 5 minutes. Then, the arrested neutrophils were counted in nine fields-of-view per group (FIG. 1D).

CC(C)(C)C(=O)/C(=C\c1cccc([N+](=O)[O-])c1)n1cncn1 [Nexinhib20, 4,4-dimethyl-1-(3-nitrophenyl)-2-(1H-1,2,4-triazol-1-yl)-1-penten-3-one]
IL-8-induced increase of Rac-1-GTP [1]: eliminated these increases
recruitment of neutrophils to the liver and kidney ([2]; LPS-induced systemic inflammation model): inhibit recruitment of neutrophils
recruitment of neutrophils to lung lumen and parenchyma ([2]; acute LPS-induced lung injury mouse model): inhibit recruitment of neutrophils
inhibition of neutrophil extracellular superoxide anion production (neutrophils): about 50%
concentration at 4 h ([3]; male, mouse, ip, 0.8 μmol per mouse, 4 h): < 28800 ng/mL and < 96 nM
half-life ([3]; male, mouse, ip, 0.8 μmol per mouse, one phase exponential decay fit, 95% CI): 11.5 to 16.3 min
time within which Nexinhib20 was degraded [3]: ≤ 2 h
CD11b upregulation (human neutrophils [4]): diminished
effect of IL-8 on rolling velocity of treated neutrophils (human neutrophils [5]; RT 1 hour): did not slow down
neutrophil arrest on IL-8 substrate (human neutrophils [5]; RT 1 hour before perfusion): failed to arrest
decrease of number of arrested neutrophils (human neutrophils [5]; RT 1 hour, P-selectin/ICAM-1/IL-8, 6 dyn·cm^−2): about 90%
number of arrested neutrophils (human neutrophils [5]; RT 1 hour, P-selectin/ICAM-1/IL-8, 6 dyn·cm^−2, vehicle about 200): about 20 cells per field-of-view
